{
  "source": "ChEMBL document CHEMBL1201862",
  "about": "“PubChem BioAssay data set” (2004)",
  "assay_in_all_cases": "inhibition of tumour cell growth, NCI panel, 48 h",
  "key": {"786-0": {"test_system": "786-0"}, "A498": {"test_system": "A498"}, "A549": {"test_system": "A549"}, "ACHN": {"test_system": "ACHN"}, "BT-549": {"test_system": "BT-549"}, "CAKI-1": {"test_system": "CAKI-1"}, "CCRF-CEM": {"test_system": "CCRF-CEM"}, "COLO 205": {"test_system": "COLO 205"}, "DU-145": {"test_system": "DU-145"}, "EKVX": {"test_system": "EKVX"}, "HCT-116": {"test_system": "HCT-116"}, "HCT-15": {"test_system": "HCT-15"}, "HL-60": {"test_system": "HL-60"}, "HOP-62": {"test_system": "HOP-62"}, "HOP-92": {"test_system": "HOP-92"}, "HT-29": {"test_system": "HT-29"}, "Hs-578T": {"test_system": "Hs-578T"}, "IGROV-1": {"test_system": "IGROV-1"}, "K562": {"test_system": "K562"}, "KM12": {"test_system": "KM12"}, "LOX IMVI": {"test_system": "LOX IMVI"}, "M14": {"test_system": "M14"}, "MCF7": {"test_system": "MCF7"}, "MDA-MB-231": {"test_system": "MDA-MB-231"}, "MDA-MB-435": {"test_system": "MDA-MB-435"}, "MDA-N": {"test_system": "MDA-N"}, "MOLT-4": {"test_system": "MOLT-4"}, "Malme-3M": {"test_system": "Malme-3M"}, "NCI-H226": {"test_system": "NCI-H226"}, "NCI-H23": {"test_system": "NCI-H23"}, "NCI-H460": {"test_system": "NCI-H460"}, "NCI-H522": {"test_system": "NCI-H522"}, "NCI/ADR-RES": {"test_system": "NCI/ADR-RES"}, "OVCAR-3": {"test_system": "OVCAR-3"}, "OVCAR-4": {"test_system": "OVCAR-4"}, "OVCAR-5": {"test_system": "OVCAR-5"}, "OVCAR-8": {"test_system": "OVCAR-8"}, "PC-3": {"test_system": "PC-3"}, "RPMI-8226": {"test_system": "RPMI-8226"}, "RXF 393": {"test_system": "RXF 393"}, "SF-268": {"test_system": "SF-268"}, "SF-295": {"test_system": "SF-295"}, "SF-539": {"test_system": "SF-539"}, "SK-MEL-28": {"test_system": "SK-MEL-28"}, "SK-MEL-2": {"test_system": "SK-MEL-2"}, "SK-MEL-5": {"test_system": "SK-MEL-5"}, "SK-OV-3": {"test_system": "SK-OV-3"}, "SN12C": {"test_system": "SN12C"}, "SNB-19": {"test_system": "SNB-19"}, "SNB-75": {"test_system": "SNB-75"}, "SW-620": {"test_system": "SW-620"}, "T47D": {"test_system": "T47D"}, "TK-10": {"test_system": "TK-10"}, "U-251": {"test_system": "U-251"}, "UACC-62": {"test_system": "UACC-62"}, "UO-31": {"test_system": "UO-31"}},
  "note": "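All cell lines were grown in 96-well plates and treated with compound for 48 hours. GI50 is the concentration that inhibits growth by half.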 Calls of active or inactive are those of the source. Cut-off read from the data, not from the text of the source: active = GI50 up to about 1.1 µM and inactive = higher.",
  "data": [
    {"smiles": "COC(=O)Nc1nc2cc(NS(=O)(=O)c3ccc(F)cc3)ccc2[nH]1", "values": [
      {"measurement": "GI50", "setting": "786-0", "value": "40 µM (inactive)"},
      {"measurement": "GI50", "setting": "A498", "value": "11.3 µM (inactive)"},
      {"measurement": "GI50", "setting": "A549", "value": "37.2 µM (inactive)"},
      {"measurement": "GI50", "setting": "ACHN", "value": "42.2 µM (inactive)"},
      {"measurement": "GI50", "setting": "BT-549", "value": "> 100 µM (inactive)"},
      {"measurement": "GI50", "setting": "CAKI-1", "value": "23.6 µM (inactive)"},
      {"measurement": "GI50", "setting": "CCRF-CEM", "value": "13.7 µM (inactive)"},
      {"measurement": "GI50", "setting": "COLO 205", "value": "5.25 µM (inactive)"},
      {"measurement": "GI50", "setting": "DU-145", "value": "39.2 µM (inactive)"},
      {"measurement": "GI50", "setting": "EKVX", "value": "31.3 µM (inactive)"},
      {"measurement": "GI50", "setting": "HCT-116", "value": "4.54 µM (inactive)"},
      {"measurement": "GI50", "setting": "HCT-15", "value": 8.22, "unit": "µM"},
      {"measurement": "GI50", "setting": "HL-60", "value": "4.03 µM (inactive)"},
      {"measurement": "GI50", "setting": "HOP-62", "value": "43.3 µM (inactive)"},
      {"measurement": "GI50", "setting": "HOP-92", "value": "10.5 µM (inactive)"},
      {"measurement": "GI50", "setting": "HT-29", "value": "7.73 µM (inactive)"},
      {"measurement": "GI50", "setting": "Hs-578T", "value": "2.07 µM (inactive)"},
      {"measurement": "GI50", "setting": "IGROV-1", "value": "2.15 µM (inactive)"},
      {"measurement": "GI50", "setting": "K562", "value": "4.65 µM (inactive)"},
      {"measurement": "GI50", "setting": "KM12", "value": "4.43 µM (inactive)"},
      {"measurement": "GI50", "setting": "LOX IMVI", "value": "48.1 µM (inactive)"},
      {"measurement": "GI50", "setting": "M14", "value": "7.48 µM (inactive)"},
      {"measurement": "GI50", "setting": "MCF7", "value": "4.57 µM (inactive)"},
      {"measurement": "GI50", "setting": "MDA-MB-231", "value": "21.9 µM (inactive)"},
      {"measurement": "GI50", "setting": "MDA-MB-435", "value": "2.65 µM (inactive)"},
      {"measurement": "GI50", "setting": "MDA-N", "value": "2.14 µM (inactive)"},
      {"measurement": "GI50", "setting": "MOLT-4", "value": "6.75 µM (inactive)"},
      {"measurement": "GI50", "setting": "Malme-3M", "value": "7.5 µM (inactive)"},
      {"measurement": "GI50", "setting": "NCI-H226", "value": "77.8 µM (inactive)"},
      {"measurement": "GI50", "setting": "NCI-H23", "value": "21.8 µM (inactive)"},
      {"measurement": "GI50", "setting": "NCI-H460", "value": "24.7 µM (inactive)"},
      {"measurement": "GI50", "setting": "NCI-H522", "value": "2.1 µM (inactive)"},
      {"measurement": "GI50", "setting": "NCI/ADR-RES", "value": "13.3 µM (inactive)"},
      {"measurement": "GI50", "setting": "OVCAR-3", "value": "2.8 µM (inactive)"},
      {"measurement": "GI50", "setting": "OVCAR-4", "value": "33.9 µM (inactive)"},
      {"measurement": "GI50", "setting": "OVCAR-5", "value": "45.2 µM (inactive)"},
      {"measurement": "GI50", "setting": "OVCAR-8", "value": "35 µM (inactive)"},
      {"measurement": "GI50", "setting": "PC-3", "value": "22.9 µM (inactive)"},
      {"measurement": "GI50", "setting": "RPMI-8226", "value": "15 µM (inactive)"},
      {"measurement": "GI50", "setting": "RXF 393", "value": "18.5 µM (inactive)"},
      {"measurement": "GI50", "setting": "SF-268", "value": "72.6 µM (inactive)"},
      {"measurement": "GI50", "setting": "SF-295", "value": "14.5 µM (inactive)"},
      {"measurement": "GI50", "setting": "SF-539", "value": "12.2 µM (inactive)"},
      {"measurement": "GI50", "setting": "SK-MEL-28", "value": "9.75 µM (inactive)"},
      {"measurement": "GI50", "setting": "SK-MEL-2", "value": "31 µM (inactive)"},
      {"measurement": "GI50", "setting": "SK-MEL-5", "value": "5.77 µM (inactive)"},
      {"measurement": "GI50", "setting": "SK-OV-3", "value": "13.1 µM (inactive)"},
      {"measurement": "GI50", "setting": "SN12C", "value": "68.9 µM (inactive)"},
      {"measurement": "GI50", "setting": "SNB-19", "value": "6.46 µM (inactive)"},
      {"measurement": "GI50", "setting": "SNB-75", "value": "6.49 µM (inactive)"},
      {"measurement": "GI50", "setting": "SW-620", "value": "6.27 µM (inactive)"},
      {"measurement": "GI50", "setting": "T47D", "value": "> 100 µM (inactive)"},
      {"measurement": "GI50", "setting": "TK-10", "value": "14.4 µM (inactive)"},
      {"measurement": "GI50", "setting": "U-251", "value": "19.1 µM (inactive)"},
      {"measurement": "GI50", "setting": "UACC-62", "value": "9.23 µM (inactive)"},
      {"measurement": "GI50", "setting": "UO-31", "value": "37.6 µM (inactive)"}
    ]}
  ]
}
